From ChEMBL document CHEMBL1201862, “PubChem BioAssay data set” (2004)
Calls of active or inactive are those of the source.

Assays:
[1] = HPDE-C7 pancreatic duct cell viability loss – fluorescence, HTS (AID 430); format: functional, cell-based; details: Homo sapiens
[2] = viability loss of HPDE-C7K cells – cell-based, fluorescence, HTS, primary screen (AID 431); format: functional; details: Homo sapiens
[3] = target: T1, Short transient receptor potential channel 4 (Mus musculus, UniProt Q9QUQ5); assay: potentiation of DAMGO-evoked TRPC4 calcium signal – cell-based, HEK293 TRPC4/mu-opioid, Fluo-4 calcium, EC20 DAMGO, dose response (AID 434941); format: functional
T1 sequence (Q9QUQ5 whole entry): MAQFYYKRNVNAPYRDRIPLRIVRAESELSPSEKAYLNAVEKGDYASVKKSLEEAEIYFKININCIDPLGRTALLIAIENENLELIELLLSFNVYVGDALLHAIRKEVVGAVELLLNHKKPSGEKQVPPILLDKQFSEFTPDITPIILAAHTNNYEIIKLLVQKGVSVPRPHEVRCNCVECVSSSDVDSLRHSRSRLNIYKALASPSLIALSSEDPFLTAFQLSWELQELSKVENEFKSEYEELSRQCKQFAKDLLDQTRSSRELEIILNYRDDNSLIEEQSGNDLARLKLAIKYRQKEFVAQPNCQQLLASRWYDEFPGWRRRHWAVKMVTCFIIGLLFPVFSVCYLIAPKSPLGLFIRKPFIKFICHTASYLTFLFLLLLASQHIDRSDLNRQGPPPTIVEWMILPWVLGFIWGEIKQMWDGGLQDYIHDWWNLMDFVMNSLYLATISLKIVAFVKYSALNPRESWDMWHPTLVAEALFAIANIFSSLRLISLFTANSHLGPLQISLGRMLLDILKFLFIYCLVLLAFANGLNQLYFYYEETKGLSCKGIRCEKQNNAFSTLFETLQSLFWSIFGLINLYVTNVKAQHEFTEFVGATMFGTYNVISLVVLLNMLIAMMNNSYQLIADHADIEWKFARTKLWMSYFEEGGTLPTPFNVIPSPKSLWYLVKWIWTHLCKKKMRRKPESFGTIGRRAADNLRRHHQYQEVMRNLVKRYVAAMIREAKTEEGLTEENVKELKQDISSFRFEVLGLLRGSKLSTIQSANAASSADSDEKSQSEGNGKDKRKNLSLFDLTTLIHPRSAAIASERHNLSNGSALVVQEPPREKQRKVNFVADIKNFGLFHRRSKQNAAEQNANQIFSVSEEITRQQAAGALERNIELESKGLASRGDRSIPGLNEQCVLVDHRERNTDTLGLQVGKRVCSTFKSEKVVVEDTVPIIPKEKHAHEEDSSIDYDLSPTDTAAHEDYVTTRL

[4] = target: T2, G-protein coupled receptor 55 (Homo sapiens, UniProt Q9Y2T6); assay: selective activators of receptor GPR55 – imaging, U2OS cells, beta-arrestin-GFP redistribution, primary screen (AID 1961); format: functional
T2 sequence (Q9Y2T6 whole entry): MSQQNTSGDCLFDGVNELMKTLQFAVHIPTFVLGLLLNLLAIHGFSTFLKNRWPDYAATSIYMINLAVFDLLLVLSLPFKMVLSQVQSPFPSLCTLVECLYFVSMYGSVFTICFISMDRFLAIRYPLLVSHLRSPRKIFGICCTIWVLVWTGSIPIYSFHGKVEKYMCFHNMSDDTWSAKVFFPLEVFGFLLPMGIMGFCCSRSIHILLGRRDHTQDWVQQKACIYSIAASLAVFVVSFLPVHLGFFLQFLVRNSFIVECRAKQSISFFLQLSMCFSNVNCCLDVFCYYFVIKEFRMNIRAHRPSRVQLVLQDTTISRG

BJ [5] = assay: BJ-TERT fibroblast viability loss – cell-based, RAS-independent, luminescence, dose response (AID 1933); format: functional; details: Homo sapiens
BJ [6] = assay: cells; format: functional, cell-based; details: Homo sapiens
[7] = Trypanosoma cruzi growth suppression in host cells – NIH3T3 host cells, beta-gal luminescence, confirmation (AID 2044); format: functional, cell-based;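 further: intracellular parasites grown in NIH/3T3 mouse fibroblasts as host cells; luminescent beta-galactosidase reporter signal from transgenic T. cruzi replicating inside host cells; inhibitors lower the luminescence signal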
[8] = NIH3T3 cell viability loss – ATP luminescence, mouse fibroblasts, counter-screen, dose response (AID 2010); format: functional, cell-based;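 further: cells exposed to compound for about 90 hours before reading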
BJ [9] = assay: BJ-TERT-LT-ST fibroblast viability loss – cell-based, RAS-independent, luminescence, dose response (AID 1935); format: functional; details: Homo sapiens;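 further: BJ fibroblasts immortalized with TERT plus LT and ST oncogenes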
[10] = DRD fibroblast viability loss – cell-based, non-viral oncogenic, luminescence, dose response (AID 1934); format: functional; details: Homo sapiens
Bcl-2-related protein A1 = target: T3, Bcl-2-related protein A1 (Mus musculus, UniProt Q07440); format: functional;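 further: confirmatory dose–response counterscreen on Bfl-1, used to check hits from a UBC13 polyubiquitin inhibitor campaign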
T3 sequence (Q07440 whole entry): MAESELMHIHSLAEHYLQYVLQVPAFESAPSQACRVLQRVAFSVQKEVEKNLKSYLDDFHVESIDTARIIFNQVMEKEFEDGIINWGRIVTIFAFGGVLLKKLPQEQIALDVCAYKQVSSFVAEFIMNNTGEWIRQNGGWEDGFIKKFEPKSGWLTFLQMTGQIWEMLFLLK

[11] = target: T4, Ubiquitin-conjugating enzyme E2 N (Homo sapiens, UniProt P61088); format: functional
T4 sequence (P61088 whole entry): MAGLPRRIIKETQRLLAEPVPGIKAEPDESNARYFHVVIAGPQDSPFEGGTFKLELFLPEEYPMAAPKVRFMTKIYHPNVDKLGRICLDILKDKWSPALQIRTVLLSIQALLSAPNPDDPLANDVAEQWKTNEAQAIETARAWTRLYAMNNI

[12] = target: T4, Ubiquitin-conjugating enzyme E2 N; format: functional; remark: listed apart in the source
[13] = target: T5, Type-1 angiotensin II receptor (Homo sapiens, UniProt P30556); assay: agonist activity at AGTR1 – cell-based, uHTS hits, selectivity assay for APJ receptor agonist project, dose response (AID 488865); format: functional;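 further: beta-arrestin recruitment to AT1 measured by enzyme fragment complementation luminescence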
T5 sequence (P30556 whole entry): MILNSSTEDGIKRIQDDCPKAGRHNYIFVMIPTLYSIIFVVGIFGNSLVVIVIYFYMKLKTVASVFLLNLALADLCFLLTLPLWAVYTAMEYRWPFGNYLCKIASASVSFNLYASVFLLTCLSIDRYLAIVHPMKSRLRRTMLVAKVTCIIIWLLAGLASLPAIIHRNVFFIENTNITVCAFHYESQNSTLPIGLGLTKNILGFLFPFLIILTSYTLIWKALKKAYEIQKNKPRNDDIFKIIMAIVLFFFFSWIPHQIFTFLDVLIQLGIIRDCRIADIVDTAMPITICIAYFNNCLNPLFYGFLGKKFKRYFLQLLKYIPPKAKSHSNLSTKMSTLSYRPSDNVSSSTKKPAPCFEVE

[14] = blockers of HIV-1 envelope-mediated cell-cell fusion – cherry-pick, dose response (AID 652057); format: functional, cell-based
[15] = viability loss in CEM21 cells – cell-based, CellTiter-Glo luminescence, cherry-picked, cytotoxicity control for viral fusion inhibitor project, dose response (AID 652042); format: functional;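 further: potency for signal decrease meaning cytotoxicity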
[16] = blockers of HIV-1 ZM109 envelope-driven cell-cell fusion – HeLa effector, CEM target cells, luciferase, cherry-pick, dose response (AID 652058); format: functional, cell-based;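 further: luciferase signal from HIV-1 Env mediated cell-cell fusion of effector and target cells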
[17] = off-target signal loss in HeLa-CEM21 co-culture – HeLa F-luc CTL cells, cherry-picked, counter-screen for HIV-1 Env fusion inhibitor project, dose response (AID 652040); format: functional, cell-based;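 further: potency for signal decrease marking cytotoxic or nonspecific inhibition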
[18] = HIV-1 AD8 envelope cell-cell fusion blockers – cherry-pick, dose response (AID 652062); format: functional, cell-based;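 further: luciferase signal from cell-cell fusion driven by HIV-1 clade B AD8 Env; potency is for inhibitors of fusion seen as a drop in luminescence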
Cannabinoid receptor 2 [19] = target: T6, Cannabinoid receptor 2 (Homo sapiens, UniProt P34972); assay: SAR analysis of antagonists of the Cannabinoid Receptor 2 using an Image-Based Assay - Set 2. [Related pubchem assays (depositor defined):AID1961, AID1965]; format: functional
T6 sequence (P34972 whole entry): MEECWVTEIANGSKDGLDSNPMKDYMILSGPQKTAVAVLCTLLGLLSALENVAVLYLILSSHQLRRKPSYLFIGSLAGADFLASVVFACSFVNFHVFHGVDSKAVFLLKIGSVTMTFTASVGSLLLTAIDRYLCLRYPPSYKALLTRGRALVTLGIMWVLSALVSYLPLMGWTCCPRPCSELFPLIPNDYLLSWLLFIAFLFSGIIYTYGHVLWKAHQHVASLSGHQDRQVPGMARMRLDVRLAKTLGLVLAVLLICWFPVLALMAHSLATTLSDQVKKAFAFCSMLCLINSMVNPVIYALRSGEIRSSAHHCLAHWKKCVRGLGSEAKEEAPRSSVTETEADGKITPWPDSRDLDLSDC

[20] = target: T2, G-protein coupled receptor 55; assay: SAR analysis of selective Agonists of GPR55 using an Image-Based Assay - Set 2. [Related pubchem assays (depositor defined):AID1961, AID1965]; format: functional
Cannabinoid receptor 2 [21] = target: T6, Cannabinoid receptor 2; assay: SAR analysis of agonists of the Cannabinoid Receptor 2 using an Image-Based Assay - Set 2. [Related pubchem assays (depositor defined):AID1961, AID1965]; format: functional
[22] = target: T7, G-protein coupled receptor 35 (Homo sapiens, UniProt Q9HC97); assay: SAR analysis of Agonists of the GPR35 Receptor using an Image-Based Assay - Set 3. [Related pubchem assays (depositor defined):AID1961, AID1965]; format: functional
T7 sequence (Q9HC97 whole entry): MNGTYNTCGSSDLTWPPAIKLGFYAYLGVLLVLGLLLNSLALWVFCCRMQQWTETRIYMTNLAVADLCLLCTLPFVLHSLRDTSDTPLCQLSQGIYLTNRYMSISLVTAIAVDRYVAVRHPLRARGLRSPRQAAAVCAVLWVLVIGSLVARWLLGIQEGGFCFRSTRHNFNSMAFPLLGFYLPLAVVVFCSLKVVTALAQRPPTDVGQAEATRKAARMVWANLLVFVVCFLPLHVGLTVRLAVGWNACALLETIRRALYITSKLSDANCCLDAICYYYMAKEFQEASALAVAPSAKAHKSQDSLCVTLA

Cannabinoid receptor 1 [23] = target: T8, Cannabinoid receptor 1 (Homo sapiens, UniProt P21554); assay: SAR analysis of antagonists of the Cannabinoid Receptor 1 using an Image-Based Assay - Set 3. [Related pubchem assays (depositor defined):AID1961, AID1965]; format: functional
T8 sequence (P21554 whole entry): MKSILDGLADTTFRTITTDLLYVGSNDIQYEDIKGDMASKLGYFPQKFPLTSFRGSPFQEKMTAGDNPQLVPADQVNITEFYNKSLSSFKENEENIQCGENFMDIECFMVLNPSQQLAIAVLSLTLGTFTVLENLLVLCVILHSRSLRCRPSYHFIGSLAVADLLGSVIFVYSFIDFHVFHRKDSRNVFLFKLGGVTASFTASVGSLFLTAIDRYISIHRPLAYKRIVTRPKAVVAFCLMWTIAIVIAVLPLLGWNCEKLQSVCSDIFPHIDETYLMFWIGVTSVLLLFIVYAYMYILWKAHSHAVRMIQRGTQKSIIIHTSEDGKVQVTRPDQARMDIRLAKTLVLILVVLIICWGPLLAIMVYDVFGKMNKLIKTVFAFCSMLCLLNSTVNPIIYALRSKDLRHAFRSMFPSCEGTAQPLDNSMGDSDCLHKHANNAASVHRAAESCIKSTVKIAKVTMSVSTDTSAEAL

Cannabinoid receptor 1 [24] = target: T8, Cannabinoid receptor 1; assay: SAR analysis of agonists of the Cannabinoid Receptor 1 using an Image-Based Assay - Set 3. [Related pubchem assays (depositor defined):AID1961, AID1965]; format: functional
[25] = target: T7, G-protein coupled receptor 35; assay: SAR analysis of Antagonists of the GPR35 Receptor using an Image-Based Assay - Set 4. [Related pubchem assays (depositor defined):[…]]; format: functional
[26] = luciferase reporter signal suppression in cells – H4 neuroglioma cells, luminescence, dose response (AID 1990); format: functional, cell-based
HEK293 [27] = assay: inhibition of NOD1-driven NF-kB reporter – cell-based, luminescence, uHTS, primary screen (AID 1578); format: functional; details: Homo sapiens
HEK293 [28] = assay: cells; format: functional, cell-based; details: Homo sapiens
[29] = Luminescence Cell-Based Dose Response HTS to Identify Inhibitors of 5'UTR Stem-Loop Driven Prion Protein mRNA Translation in H4 Neuroglioblastoma Cells. [Related pubchem assays: 1827 (Project Summary), 1813 (Primary HTS)]; format: functional
[30] = alpha-synuclein stem-loop luciferase translation blockers – H4 neuroglioma cells, luminescence, confirmation (AID 1988); format: functional, cell-based
HEK293 [31] = assay: cells; format: functional, cell-based; details: Homo sapiens; remark: listed apart in the source
[32] = target: Nucleotide-binding oligomerization domain-containing protein 2 (Homo sapiens, UniProt Q9HC29); assay: inhibition of NOD2-driven NF-kB reporter – cell-based, luminescence, uHTS, HEK293 (AID 1566); format: functional
Sequence of Nucleotide-binding oligomerization domain-containing protein 2 (Q9HC29 whole entry, the tested form may be a part): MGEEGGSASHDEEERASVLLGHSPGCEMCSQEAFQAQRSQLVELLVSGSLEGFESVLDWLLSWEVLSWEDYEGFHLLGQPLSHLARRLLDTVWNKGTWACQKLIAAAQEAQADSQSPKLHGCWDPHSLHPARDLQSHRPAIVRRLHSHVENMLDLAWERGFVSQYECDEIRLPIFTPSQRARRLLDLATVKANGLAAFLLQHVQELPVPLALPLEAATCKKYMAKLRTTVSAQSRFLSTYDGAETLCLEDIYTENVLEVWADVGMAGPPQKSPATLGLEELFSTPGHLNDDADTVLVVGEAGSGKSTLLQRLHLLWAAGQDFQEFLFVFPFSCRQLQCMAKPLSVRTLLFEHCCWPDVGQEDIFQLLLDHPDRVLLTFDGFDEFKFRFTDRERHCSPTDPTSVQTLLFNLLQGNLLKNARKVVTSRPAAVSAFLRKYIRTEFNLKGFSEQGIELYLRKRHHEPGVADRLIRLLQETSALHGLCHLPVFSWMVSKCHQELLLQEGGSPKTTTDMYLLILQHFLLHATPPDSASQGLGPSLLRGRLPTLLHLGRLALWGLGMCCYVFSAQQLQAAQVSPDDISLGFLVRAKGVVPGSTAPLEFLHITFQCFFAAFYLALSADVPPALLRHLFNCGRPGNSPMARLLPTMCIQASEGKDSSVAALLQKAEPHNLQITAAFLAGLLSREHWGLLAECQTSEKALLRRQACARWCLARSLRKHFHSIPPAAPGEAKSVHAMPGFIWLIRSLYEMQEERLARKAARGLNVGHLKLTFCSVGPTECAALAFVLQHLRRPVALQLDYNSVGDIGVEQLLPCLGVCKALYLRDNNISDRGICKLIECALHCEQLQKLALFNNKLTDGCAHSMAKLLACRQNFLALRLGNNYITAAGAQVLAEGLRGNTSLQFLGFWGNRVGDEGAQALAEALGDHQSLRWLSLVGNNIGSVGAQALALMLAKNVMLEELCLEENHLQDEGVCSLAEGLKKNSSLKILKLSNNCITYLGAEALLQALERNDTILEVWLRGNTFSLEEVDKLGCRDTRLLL

HEK293 [33] = assay: NOD2 signaling inhibitors in MDP-stimulated cells, cell-based, uHTS, luminescence (AID 2001); format: functional; details: Homo sapiens
HEK293 [34] = assay: cells; format: functional, cell-based; details: Homo sapiens; remark: listed apart in the source
[35] = microbe, parasite or virus in culture; format: functional; details: Mycobacterium tuberculosis
[36] = THP-1 cell cytotoxicity, dose response, cytotoxicity control for non-replicating M. tuberculosis project (AID 489025); format: functional
[37] = Vero E6 cell cytotoxicity, dose response, cytotoxicity control for non-replicating M. tuberculosis project, secondary assay (AID 492998); format: functional, VeroE6; details: Vero C1008
cells = format: functional
INS1 = assay: INS-1E survival protection against cytokine death – cell-based, luminescence, retest, dose response (AID 449756); format: functional; details: Rattus norvegicus;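 further: cell death triggered by IL-1 beta plus TNF-alpha plus IFN-gamma mixture; protective hits raise ATP signal compared with cytokine alone wells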

CCCC1(c2ccccc2)NC(=O)N(CC(=O)c2[nH]c(C)c(C(=O)OCC)c2C)C1=O (configuration not stated)
EC50 [1]: > 20 µM (not active) | EC50 [2]: > 20 µM (not active) | EC50 [3]: 2.66 µM (active)

COc1ccccc1OCC(=O)/C=C1/N(C)c2ccccc2C1(C)C
EC50 [4]: 5.48 µM (active)

COc1ccc2sc(N(CCCN(C)C)C(=O)c3ccc(S(=O)(=O)N4CCc5ccccc5C4)cc3)nc2c1
EC50 (BJ [5]): 2.75 µM (inconclusive) | EC50 (BJ [6]): 10 µM (active) | EC50 [7]: 0.228 µM (active) | EC50 [8]: 5.73 µM (active) | EC50 (BJ [9]): 4.5 µM (inconclusive) | EC50 [10]: 5.14 µM (inconclusive) | IC50 (Bcl-2-related protein A1): > 20 µM (inactive) | IC50 [11]: 8.44 µM (active) | IC50 [12]: 8.54 µM (active) | EC50 [13]: > 100 µM (inactive) | AC50 [14]: 6.44 µM (active) | AC50 [15]: 3.7 µM (active) | AC50 [16]: 9.11 µM (active) | AC50 [17]: 8.3 µM (active) | AC50 [18]: 6.84 µM (active)

CC(C)Oc1ccc(S(=O)(=O)N2CCOCC2)cc1NC(=O)c1cc2ccccc2s1
IC50 (Cannabinoid receptor 2 [19]): > 32 µM (inactive) | EC50 [20]: > 32 µM (inactive) | EC50 (Cannabinoid receptor 2 [21]): > 32 µM (inactive) | EC50 [22]: > 32 µM (inactive) | IC50 (Cannabinoid receptor 1 [23]): > 32 µM (inactive) | EC50 (Cannabinoid receptor 1 [24]): > 32 µM (inactive) | IC50 [25]: > 32 µM (inactive)

Cc1cc(N/N=C/c2ccccc2[N+](=O)[O-])nc(-n2nc(C)cc2C)n1
EC50 [26]: 13.3 µM (active) | EC50 (HEK293 [27]): 6.21 µM (active) | IC50 (HEK293 [28]): 15.6 µM (active) | EC50 [29]: 13.1 µM (active) | EC50 [30]: > 120 µM (not active) | IC50 (HEK293 [31]): > 20 µM (inactive) | EC50 [32]: > 20 µM (inactive) | IC50 (HEK293 [33]): 6.54 µM (inactive) | EC50 [7]: 2.26 µM (active) | IC50 (HEK293 [34]): > 20 µM (inactive) | CC50 [35]: 15.5 µM (active) | EC50 [8]: 7.48 µM (active) | CC50 [36]: 4.01 µM (active) | CC50 [37]: 6.96 µM (active) | IC50 (cells): 0.6 µM (active) | AC50 (INS1): 2.77 µM (active)
